Like-named read-outs stand apart in the source and are kept apart here.
Biological target: cannabinoid receptors
Assay: [3H]CP55,940 competition binding in rat brain cortex membrane homogenates
Design: species or system Sprague-Dawley rat
Conditions: for IC50: vs [3H]CP55,940, rat brain cortex membranes
Protocol: Sprague–Dawley rats (n = 5) were anesthetized and sacrificed by decapitation. Spleens and brains were then quickly removed by dissection at 4 °C, and in the case of the brain tissue, the cortex was dissected for the preparation of the membrane homogenates. For this procedure, spleen and cortex samples were homogenized using a Teflon-glass grinder (15 up-and-down strokes at 800 rpm) in 30 volumes of homogenization buffer (1 mM EGTA, 3 mM MgCl2, 50 mM Tris–HCl; pH 7.4) supplemented with […], at 4 °C. The obtained homogenates were centrifuged for 5 min at 1500 rpm. Pellets were removed, and supernatants were centrifuged again for 15 min at 14,000 rpm. For washing, the obtained pellets were resuspended in a buffer and centrifuged again, and the supernatant was removed. The resulting aliquots were stored at −80 °C until use.
To stop the reaction, an ice-cold wash buffer (50 mM Tris–HCl and 0.5% BSA, pH 7.4) was added. Then, the membranes were retained by vacuum filtration to a Whatman GF/C glass microfiber filter (Sigma-Aldrich, St. Louis, MO, USA) and the free radioligand was discarded. Filters with the bound radioligand were transferred to vials containing 5 mL of Ultima Gold cocktail (Revvity, Boston, MA, USA) and measured with a Packard Tri-Carb 2200CA liquid scintillation counter (Revvity, Boston, MA, USA).
Data from radioligand affinity assays were analyzed by using nonlinear regression. A comparison of fits was performed for every curve and the preferred model (one site vs two sites) was chosen in each case. Curves were fitted to the pooled data from multiple experiments. For the evaluation of data from autoradiographic assays, the Kruskal–Wallis test followed by Dunn’s post hoc tests for multiple comparisons was performed. For statistical significance, the threshold was set at p = 0.05. The number of replicates or animal sample number used in each case is stated in the figure legends. GraphPad Prism 9 (GraphPad Software) was employed for data analysis and presentation.

IC50 (high-affinity site of two-site fit, read-out: IC50Hi): 0.026 nM
IC50 (low-affinity site of two-site fit, read-out: IC50Lo): 772 ± 49.4 nM
inhibition of [3H]CP55,940 binding corresponding to the high-affinity binding site (rat cortex membranes): approximately 18%
inhibition of [3H]CP55,940 binding corresponding to the low-affinity binding site (rat cortex membranes): ~40%
total inhibition of [3H]CP55,940 binding (rat cortex membranes): about 58%
SMILES: CCOC(=O)/C=C1\C(=O)Nc2ccc(C)cc2-c2c1c1cc(OC)ccc1n2C(=O)OCC [UVI3502]
affinity for cannabinoid receptors (inhibition of [3H]CP55,940 binding) (rat cortex membranes, result in words): showed affinity for cannabinoid receptors
